For 6 compounds, Ki, EC50 and ED50 results are on record in ChEMBL document CHEMBL1151514, “Imetit and N-methyl derivatives. The transition from potent agonist to antagonist at histamine H3 receptors.1” (Bioorg Med Chem Lett, 1992).

Assay [1] deals with T1, Histamine H3 receptor (Rattus norvegicus, UniProt Q9QYN8). The experiment in a line: The compound was evaluated for antagonistic effect on release of [3H]histamine from rat brain cortical slices with L-[3H]histidine at 0.3 uM. The class given is functional, tissue-based.
The species named for assay [2] is Rattus norvegicus. The experiment in a line: Concentrations required for half-maximal inhibition of tritiated amine release from rat cortical slices. It is filed as functional.
For assay [3], the target named is T1, Histamine H3 receptor. Nature of the assay: Compound was evaluated for antagonistic effect on release of [3H]histamine from rat brain cortical slices with L-[3H]histidine at 0.3 uM. It is filed as functional, tissue-based.
Assay [4] concerns Mus musculus. Nature of the assay: Compound was tested for in vivo in mice which produced a decrease in the brain level of N-tele-methylhistamine when administered orally. It is filed as functional. The following applies: po.
The target in assay [5] is T1, Histamine H3 receptor. The experiment in a line: The compound was evaluated for agonistic effect on release of [3H]histamine from rat brain cortical slices with L-[3H]histidine at 0.3 uM. It is filed as functional, tissue-based.

Each structure is given as a SMILES string.

T1 sequence (Q9QYN8 whole entry): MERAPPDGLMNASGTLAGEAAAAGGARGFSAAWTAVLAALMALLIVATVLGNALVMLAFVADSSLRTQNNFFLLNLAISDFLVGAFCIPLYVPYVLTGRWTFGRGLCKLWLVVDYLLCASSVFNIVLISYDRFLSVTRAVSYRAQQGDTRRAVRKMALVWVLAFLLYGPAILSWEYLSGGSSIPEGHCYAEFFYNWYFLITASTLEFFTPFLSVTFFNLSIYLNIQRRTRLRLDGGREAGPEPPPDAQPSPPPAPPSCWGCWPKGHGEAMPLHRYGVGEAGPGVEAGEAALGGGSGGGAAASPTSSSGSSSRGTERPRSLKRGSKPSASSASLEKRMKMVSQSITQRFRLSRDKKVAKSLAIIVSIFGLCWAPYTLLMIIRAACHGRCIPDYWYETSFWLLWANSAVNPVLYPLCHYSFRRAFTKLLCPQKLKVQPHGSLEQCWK

Turning to `C/N=C(\NC)SCCc1c[nH]cn1`, in assay [1], the Ki (as a rule, a measure of affinity in units of concentration, obtained from inhibition or displacement) is 51 nM. In assay [1], `c1nc(CCSC2=NCCN2)c[nH]1` yielded a Ki of 260 nM. This Ki lies about 5.1-fold higher than the previous one. Regarding `C/N=C(/SCCc1c[nH]cn1)N(C)C`, in assay [2], the EC50 (as a rule, the concentration that produces a half-maximal response) came to 1 nM. Moreover, in assay [3], the Ki is no less than 500 nM. On to `CN(C)C(=N)SCCc1c[nH]cn1`, for which, in assay [1], the Ki was found to be 500 nM. As for `Br.CNC(=N)SCCc1c[nH]cn1`, in assay [4], the 50% effect level (ED50) was put at a dose of 25 mg/kg. Further, it took 15 nM to reach a half-maximal effect in assay [5] (EC50).

Regarding `Br.N=C(N)SCCc1c[nH]cn1` [IMETIT DIHYDROBROMIDE], the ED50 (usually the dose that gives a 50% effect, or the effect in half of the subjects) in assay [4] is roughly 1 mg/kg.
